In article PMC9317316, “Synthesis and Evaluation of Some New 4H-Pyran Derivatives as Antioxidant, Antibacterial and Anti-HCT-116 Cells of CRC, with Molecular Docking, Antiproliferative, Apoptotic and ADME Investigations” (Pharmaceuticals, 2022):

Columns and labels:
[1] = system: CDK2 protein in HCT-116 cells; experiment: Quantitative determination of CDK2 concentration in HCT-116 cell lysates (Human CDK2 ELISA Kit); assay type: cell-based; conditions: for downregulation of CDK2 protein expression, fold: as compared to the negative control; for concentration of CDK2 in lysate of treated HCT-116 cells: negative control 7.466 ng/mL
Method: First, the commercial Human CDK2 ELISA Kit was used to estimate concentrations of the protein in the lysate of HCT-116 cells treated with 4d and 4k. The results were compared with the positive (cells treated with the reference CDK inhibitor, BMS-265246) and negative control experiments.
The in vitro quantitative measurement of concentration of CDK2 in lysates of HCT-116 cells was carried out using a commercial Human CDK2 ELISA Kit (cat. no.: LS-F22176; LifeSpan Biosciences Inc., Seattle, WA, USA) in the presence or absence of the studied compounds (4d and 4k), following the manufacturer’s instructions. Briefly, standards, blanks or samples were first incubated in the corresponding wells for 90 min at 37 °C. Then, biotinylated detection antibody was added to each well and the plate was incubated for 1 h at 37 °C followed by the addition of an Avidin–Horseradish Peroxidase (HRP) conjugate which binds to the biotin. After incubation of the mixture for 30 min at 37 °C, unbound Avidin–HRP conjugate was washed away and a TMB substrate was then added which reacts with the HRP enzyme, resulting in color development. After that, the reaction was stopped using a sulfuric acid stop solution to terminate the color-development reaction and the optical density of each well was measured using a microplate reader at 450 nm. BMS-265246 was used as the standard drug for inhibition of CDK2. All measurements were performed in triplicate.

[2] = system: caspase-3 gene in HCT-116 cells; experiment: qRT-PCR expression profile of the caspase-3 gene in HCT-116 cells; assay type: cell-based, human; design: dose or concentration left out as unconfirmed; conditions: 24 h, as compared to the negative control
Text: Normally, apoptosis, or programmed cell death, is considered as a safeguard mechanism for managing stress and maintaining tissue homeostasis. It proceeds through a series of well-ordered biochemical cascades of events, which are regulated by a network of proteins. However, due to genetic and epigenetic mutations, deregulation of these proteins occurs, which results in evasion of apoptosis. This oncogenic transformation is a hallmark of human cancer, and it contributes to other tumorigenic events, including uncontrolled growth, accumulation of further genetic mutations, tumor angiogenesis and metastasis and chemotherapeutic resistance. Therefore, reinitiating selective cancer cell death is a fundamental goal in anticancer drug development. Research in cancer biology has provided fundamental insights into the apoptotic pathways and their deregulation in colon cancer. Moreover, it has identified the molecular targets for reinitiating selective tumor cell death, including antiapoptotic Bcl-2 family proteins, apoptosis inhibitors and activators of the TRAIL death receptor signaling pathway, as well as other apoptotic markers, such as caspases. Among the caspases, which play critical roles in apoptosis, are the initiators, including caspases-8 or 9, and the effectors, including caspase-3 and caspase-7. […] Thus, the real-time quantitative PCR analyses of caspase-3-gene levels following treatment with compounds 4d and 4K at a concentration […] for 24 h, were performed to investigate their potential as proapoptotic agents. […]
Total RNA was extracted from each cell culture flask using the RNeasy extraction kit (RNeasy micro kit, cat. no. 74004). […] The amount of extracted RNA was quantified by estimating the absorbance at 260 nm. The purity of the RNA was checked by measuring the ratio of the absorbance at 260 and 280 nm, where a ratio ranging from 1.8 to 2.0 was taken to be pure. […]
Quantitative real-time PCR was carried out with the Thermal Cycler Rotorgene Real-Time System II (Rotorgene, South Korea) with the SYBR kit. […]

S. enteric (ATCC 43972) = experiment: Antibacterial agar diffusion method (inhibition zone); assay type: cell-based
Summary of the method: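 Agar diffusion: inhibition zone on top agar, ampicillin 10 µg/well reference. CFU assay: compound mixed with 2 ×10^7 CFU/mL in BHI, shaken 60 min at 37 °C, serially diluted, plated and grown 24 h at 37 °C; IC50 from residual CFUs versus initial inoculum, mean of three measurements.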

COc1cc(C2C(C#N)=C(N)OC(C)=C2C(=O)OCc2ccccc2)cc(OC)c1OC (stereo not shown) [4d, 6-Amino-5-cyano-2-methyl-4-(3,4,5-trimethoxy-phenyl)-4H-pyran-3-carboxylic acid benzyl ester]
downregulation of CDK2 protein expression, fold [1]: 1.9 fold | concentration of CDK2 in lysate of treated HCT-116 cells [1]: 4.634 ng/mL | caspase-3 gene transcription level, fold increase [2]: 2.55 fold | IZ (mm) (S. enteric (ATCC 43972)): 7.0 ± 0.0 mm

CC1=C(C(=O)OCc2ccccc2)C(c2ccc(C#N)cc2)C(C#N)=C(N)O1 (stereo not shown) [4k, 6-Amino-5-cyano-4-(4-cyano-phenyl)-2-methyl-4H-pyran-3-carboxylic acid benzyl ester]
downregulation of CDK2 protein expression, fold [1]: 1.6 fold | concentration of CDK2 in lysate of treated HCT-116 cells [1]: 3.932 ng/mL | caspase-3 gene transcription level, fold increase [2]: 4.62 fold
